Counter-ions that a name gives are not always drawn.
target: CDK4/cyclin D1 (Homo sapiens, UniProt P11802); experiment: CDK4/cyclin D1 Flashplate test in 96-well format; assay type: biochemical
Method in brief: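 CDK4-HA/cyclin D1-(His)6 complex from coinfected Sf9 cells, 25 nM final, phosphorylating 1.8 μM biotinylated pRb peptide in HEPES pH 7.5 with MgCl2, DTT and [γ-33P]ATP at 30 °C. 33P incorporation captured on streptavidin Flashplates and read by scintillation counting; IC50 from seven-point inhibitor dilutions.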

Chain of CDK4/cyclin D1 (P11802 whole entry): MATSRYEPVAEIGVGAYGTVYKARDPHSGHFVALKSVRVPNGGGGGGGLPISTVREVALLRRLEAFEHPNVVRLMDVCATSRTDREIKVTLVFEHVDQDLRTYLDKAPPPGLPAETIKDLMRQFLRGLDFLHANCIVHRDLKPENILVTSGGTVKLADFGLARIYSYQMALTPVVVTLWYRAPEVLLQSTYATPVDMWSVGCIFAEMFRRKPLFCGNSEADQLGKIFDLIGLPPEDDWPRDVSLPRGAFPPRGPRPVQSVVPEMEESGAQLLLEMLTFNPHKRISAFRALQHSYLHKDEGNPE
Chain of CDK4/cyclin D1 (P24385 whole entry partner): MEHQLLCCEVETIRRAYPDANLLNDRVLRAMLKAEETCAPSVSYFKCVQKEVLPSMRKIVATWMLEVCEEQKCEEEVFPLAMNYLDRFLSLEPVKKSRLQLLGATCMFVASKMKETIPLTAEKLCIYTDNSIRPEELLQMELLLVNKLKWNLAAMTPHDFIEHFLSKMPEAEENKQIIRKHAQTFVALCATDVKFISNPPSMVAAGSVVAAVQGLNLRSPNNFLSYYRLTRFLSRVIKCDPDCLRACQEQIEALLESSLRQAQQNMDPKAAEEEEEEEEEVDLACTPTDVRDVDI

IC50 | SMILES
> 10000 nM | CC(C)N(CCNc1ccc(S(=O)(=O)Oc2ccc3nc(NC(=O)C4(N)CCCC4)sc3c2)cc1)C(C)C [Example 41, 4-(2-diisopropylaminoethylamino)benzenesulfonic acid 2-[(1-aminocyclopentanecarbonyl)amino]benzothiazol-6-yl ester]
205 nM | CC(C)N(CCNc1ccc(S(=O)(=O)Oc2ccc3nc(NC(=O)C4CC4)sc3c2)cc1)C(C)C [Example 12, 4-(2-diisopropylaminoethylamino)benzenesulfonic 2-(cyclopropanecarbonylamino)benzothiazol-6-yl ester]
125 nM | CCC(=O)Nc1nc2ccc(OS(=O)(=O)c3ccc(NCCN(C(C)C)C(C)C)cc3)cc2s1 [Example 57, 4-(2-diisopropylaminoethylamino)benzenesulfonic acid 2-propionylaminobenzothiazol-6-yl ester hydrochloride]
205 nM | CC(C)NCCNc1ccc(S(=O)(=O)Oc2ccc3nc(NC(=O)C4CC4)sc3c2)cc1 [Example 53, 4-(2-isopropylaminoethylamino)benzenesulfonic 2-(cyclopropanecarbonylamino)benzothiazol-6-yl ester hydrochloride]
341 nM | CC(C)N(CCNc1ccc(S(=O)(=O)Oc2ccc3nc(NC(=O)C4CCCC4)sc3c2)cc1)C(C)C [Example 45, 4-(2-Diisopropylaminoethylamino)benzenesulfonic acid 2-(cyclo-pentanecarbonylamino)benzothiazol-6-yl ester]
170 nM | CC(=O)Nc1nc2ccc(OS(=O)(=O)c3ccc(NCCNC(C)C)cc3)cc2s1 [Example 65, 4-(2-isopropylaminoethylamino)benzenesulfonic acid 2-acetylaminobenzothiazol-6-yl ester]
358 nM | O=C(Nc1nc2ccc(OS(=O)(=O)c3cccs3)cc2s1)C1CC1 [Example 33h, Thiophene-2-sulfonic acid 2-(cyclopro-panecarbonylamino)benzothiazol-6-yl ester]
3320 nM | CC(C)(CNc1ccc(S(=O)(=O)Oc2ccc3nc(NC(=O)C4CC4)sc3c2)cc1)OP(=O)(O)O [Example 89, 4-(2-methyl-2-phosphonooxypropylamino)benzene-sulfonic acid 2-(cyclopropanecarbonylamino)benzothiazol-6-yl ester]
265 nM | CC(C)N(CCNc1ccc(S(=O)(=O)Oc2ccc3nc(NC(=O)C4CCC4)sc3c2)cc1)C(C)C [Example 60, 4-(2-diisopropylaminoethylamino)benzenesulfonic acid 2-(cyclobutanecarbonylamino)benzothiazol-6-yl ester hydrochloride]
313 nM | COCC(=O)Nc1nc2ccc(OS(=O)(=O)c3ccc(NCCN(C(C)C)C(C)C)cc3)cc2s1 [Example 44, 4-(2-Diisopropylaminoethylamino)benzenesulfonic acid 2-(2-methoxyacetylamino)benzothiazol-6-yl ester]
924 nM | CC(C)(O)CNc1ccc(S(=O)(=O)Oc2ccc3nc(NC(=O)C4CC4)sc3c2)cc1 [Example 11, 4-(2-hydroxy-2-methylpropylamino)benzene-sulfonic 2-(cyclopropanecarbonylamino)benzothiazol-6-yl ester]
> 10000 nM | O=C(Nc1nc2ccc(OS(=O)(=O)c3ccc(-c4ccccn4)s3)cc2s1)C1CC1 [Example 85, 5-pyridin-2-ylthiophene-2-sulfonic acid 2-(cyclopropanecarbonylamino)benzothiazol-6-yl ester]
944 nM | CNc1ccc(S(=O)(=O)Oc2ccc3nc(NC(=O)C4CC4)sc3c2)cc1 [Example 10, 4-methylaminobenzenesulfonic 2-(cyclopropane-carbonylamino)benzothiazol-6-yl ester]
119 nM | CC(=O)Nc1nc2ccc(OS(=O)(=O)c3ccc(NCCN(C(C)C)C(C)C)cc3)cc2s1 [Example 43, 4-(2-Diisopropylaminoethylamino)benzenesulfonic acid 2-acetylaminobenzothiazol-6-yl ester]
221 nM | CC(C)C(=O)Nc1nc2ccc(OS(=O)(=O)c3ccc(NCCN(C(C)C)C(C)C)cc3)cc2s1 [Example 55, 4-(2-diisopropylaminoethylamino)benzenesulfonic acid 2-isobutyrylaminobenzothiazol-6-yl ester hydrochloride]
1390 nM | CC(C)(O)CNc1ccc(S(=O)(=O)Oc2ccc3nc(NC(=O)CCc4cccnc4)sc3c2)cc1 [Example 63, 4-(2-hydroxy-2-methylpropylamino)benzene-sulfonic acid 2-(3-pyrid-3-ylpropionylamino)benzothiazol-6-yl ester hydro-chloride]
931 nM | O=C(Nc1nc2ccc(OS(=O)(=O)c3ccc(NCCCn4ccnc4)cc3)cc2s1)C1CC1 [Example 9, 4-(3-imidazol-1-ylpropylamino)benzenesulfonic 2-(cyclopropanecarbonylamino)benzothiazol-6-yl ester]
